Test results: patent US11753373B2, “Protease inhibitors as antivirals” (priority 2021, dated 2023)
Like-named read-outs stand apart in the source and are kept apart here.

Key:
[1] = format: in vitro ADME; settings: extraction ratio, compound at 1 uM; for Liver Microsomal Stability (ER) SD rat: SD rat liver microsomes 0.5 mg/mL; for Liver Microsomal Stability (ER) Beagle dog: beagle dog liver microsomes 0.5 mg/mL; for Liver Microsomal Stability (ER) Monkey: monkey liver microsomes 0.5 mg/mL; for Liver Microsomal Stability (ER) Mouse: mouse liver microsomes 0.5 mg/mL
Experimental: (§1) Metabolic stability of novel protease inhibitors was determined via liver microsomal stability assay. Human, mouse, SD rat, beagle dog or monkey liver microsomes were incubated with the test compound for 5 to 60 minutes at 37° C., and then the remaining parent compound was quantified by LC-MS/MS. Percentage of the test compound remaining, half-life (t1/2), in vitro intrinsic clearance (CLint, in vitro), in vivo intrinsic clearance (CLint, in vivo), hepatic clearance (CLh) and extraction ratio (ER) were calculated.
(§2) Procedure: The assay was done as described in Baranczewski, P. et al. (2006) Pharmacological Reports 58:453-472; Pearson, P. and Wienkers, L. (2008) Handbook of Drug Metabolism, 2nd Edition. CRC Pres, P.478; and Venkatesh, P. et al. (2007) Biol. Pharm. Bull. 30:1021-2024. 0.625 mg/mL liver microsomes solution was prepared by mixing 2325 μL 100 mM of K-phosphate buffer (pH 7.4) containing 2.5 mM of MgCl2, 1.25 mM of EDTA, and 75 μL microsomes (20 mg/mL) in a vial for each species.
(§3) Positive control compound: (±) Verapamil hydrochloride (Cat No.: V4629; Lot No.: MKBV4993V; Source: Sigma)
(§4) 40 μL aliquots of the liver microsome/test compound mixture were dispensed into 96-well plate in triplicate and pre-warmed the mixture for 5 minutes at 37° C. Then, 10 μL of 5 mM NADPH solution was added to each well to initiate the reaction, and gently mixed. The samples were incubated at 37° C. with gentle shaking. (Final concentrations: compound=1 μM; liver microsomes protein=0.5 mg/mL; MgCl2=2 mM; EDTA=1 mM; ACN=0.1%; DMSO=0.05%).
(§5) For 0-min samples, 200 μL of ACN containing internal standard was added to 40 μL of liver microsome/test compound mixture, followed by addition of 5 mM NADPH, and mixed gently.
(§6) For negative control: 40 μL of liver microsome/test compound mixture was incubated at 37° C. with gentle shaking for 60 minutes, followed by addition of 200 μL ACN containing 1% FA and internal standard and 10 μL of 5 mM NADPH, mixed gently.
(§7) All samples were centrifuged at 4° C. for 20 minutes at 4,000 rpm. Then, 100 μL of the supernatant from each sample was transferred to a new 96-well plate and 100 μL of ultrapure water containing 1% FA was added to each well, and mixed gently. Samples were analyzed by LC-MS/MS.
(§8) Data Analysis: Peak area ratio (Peak Area of test compound/Peak Area of internal standard) was used to represent the concentration of compound in each sample. The remaining percentage (% Remaining) at appointed time points was calculated versus the concentration of compound at 0 min. The Ln value of the remaining percentage was linearly fitted against the incubation time.
(§9) The half-life and clearance were calculated using the following equations:
(§10) Determined percent of the remaining test compound: % remaining=[area at tx/average areas at t0]×100 (1) % metabolized=[100−% remaining] (2)
(§11) Calculated the half-life (t1/2) using the slope (k) of the log-linear regression from the concentration of remaining parent compound versus time (min) relationship: t1/2 (min)=−ln 2/k. (3)
(§12) Clint, in vitro (mL/min/mg) Clint,in vitro=k/c,(c:Liver microsome concentration in the incubation system) (4)
(§13) Hepatic Clearance (CLh) CLh=Clint,in vivo*Hepatic Blood Flow (mL/min/kg)/(Hepatic Blood Flow (mL/min/kg)+Clint,in vivo) (6)
(§14) Extraction ratio (ER): ER=CLint,in vivo/(Qh+CLint,in vivo)*100,Qh:liver blood flow (7)

[2] = format: in vitro ADME, Human; settings: extraction ratio, compound at 1 uM, human liver microsomes 0.5 mg/mL
Experimental: as §1, §2, §3
as §4, with “shaking.” for “shaking. (Final concentrations: compound=1 μM; liver microsomes protein=0.5 mg/mL; MgCl2=2 mM; EDTA=1 mM; ACN=0.1%; DMSO=0.05%).”
as §5, §6, §7, §8, §9, §10, §11, §12, §13, §14

[3] = molecular target: SARS-CoV-2 M^pro (3CL protease) (Severe acute respiratory syndrome coronavirus 2 (2019-nCoV) (SARS-CoV-2), UniProt P0DTD1); format: biochemical; settings: read-out: SARS-CoV-2M^pro inhibition IC50
SARS-CoV-2 = experiment: Anti-viral in vitro PRNT assay in Vero E6 cells; format: cell-based; settings: Vero E6 cells, 1000 pfu, 3 days, plaque reduction; for EC50: read-out: anti-SARS-CoV2 (PRNT) in Vero E6 EC50
[4] = mouse oral PK, female Balb/c, 40 mg/kg single dose; for AUC0-t / Cmax / Tmax / t1/2: plasma
Experimental: Pharmacokinetics of test compounds was evaluated following an oral administration of a single dose (at 40 mg/kg) to female Balb/c mice.
Procedure: Test compounds were administered to Balb/c mice (n=3 per sex per time point) by a single oral gavage. The target dose level for oral administration was 40 mg/kg. Blood samples were collected at pre-dose, and at 0.083, 0.25, 0.50, 1, 2, 4, 6, 8, and 12 hours post-dose. Concentrations of test compound were determined by an LC-MS/MS. Non-compartmental Pharmacokinetic parameters of test compounds were analyzed using Phoenix WinNonlin 8.3.
Animal Dosing: All animals were fasted overnight through approximately 4 hours post-dose. Tap water was provided to mice ad Libitum. The mice were dosed orally at 10.0 ml/kg. The formulation volume of the test compound administered to each animal was calculated based on the body weight measured on the day of dosing.
Sample Collection and Analysis: Approximately 0.20 mL of blood was collected via orbital sinus vein puncture into EDTA-K2 tubes. Plasma samples were harvested by centrifugation and stored at −80° C. until analysis. The analytical method for test compound involved protein precipitation by adding acetonitrile containing 1% FA and internal standard (A-1-a synthesized in house or Tolbutamide purchased from Sigma), and final analysis by LC-MS/MS. A standard curve was prepared using mouse plasma for the test compound. The calibration curve was linear over a concentration range of 1.0 to 1000 ng/mL.
Pharmacokinetic and Statistic Analysis: The reported plasma concentrations of test compounds were used to determine pharmacokinetic parameters, using a non-compartmental model for data analysis (Phoenix WinNonlin 8.3). The common pharmacokinetic parameters were calculated, whenever possible, from the plasma concentration-versus-time data. Nominal doses and sampling times were used, except where deviations were noted. […] BQL after Tmax would not participate in calculation of PK parameters.

[5] = wild type Mpro 17 nM, substrate 40 uM

| Structure (SMILES) | Liver Microsomal Stability (ER) SD rat [1] | Liver Microsomal Stability (ER) Beagle dog [1] | Liver Microsomal Stability (ER) Monkey [1] | Liver Microsomal Stability (ER) Mouse [1] | Liver Microsomal Stability (ER) Human [2] | IC50 [3] [nM] | IC50 [3, 5] [nM] | EC50 (SARS-CoV-2) [nM] | anti-SARS-CoV2 (PRNT) in Vero E6 EC50 (μM) (SARS-CoV-2) | F % (bioavailability) [4] [%] | AUC0-t [4] [ng·h/mL] | Cmax [4] [ng/mL] | Tmax [4] [min] | t1/2 [4] [min] |
| --- | --- | --- | --- | --- | --- | --- | --- | --- | --- | --- | --- | --- | --- | --- |
| CC(C)C[C@H](NC(=O)c1cc2c(F)cccc2[nH]1)C(=O)N[C@@H](C[C@@H]1CCNC1=O)C(=O)CCl [Compound A-3-d, (2S)—N-[(2S)-4-chloro-3-oxo-1-[(3S)-2-oxopyrrolidin-3-yl]butan-2-yl]-2-[(4-fluoro-1H-indol-2-yl)formamido]-4-methylpentanamide] | 0.77 | 0.78 | 0.72 | 0.58 | 0.84 | 335 | – | – | – | – | – | – | – | – |
| Cc1cccc2[nH]c(C(=O)N[C@@H](CC(C)C)C(=O)N[C@H](C#N)C[C@@H]3CCNC3=O)cc12 [Compound A-4-b] | 0.20 | 0.06 | 0.43 | 0.47 | 0.02 | – | 172 | – | – | – | – | – | – | – |
| CC(C)C[C@H](NC(=O)OCc1ccccc1)C(=O)N[C@H](C#N)C[C@@H]1CCNC1=O [Compound B-1-e] | 0.48 | 0.37 | 0.11 | 0.00 | 0.24 | – | – | 10500 | – | – | – | – | – | – |
| C=CC(=O)N[C@H](C[C@@H]1CCNC1=O)NC(=O)[C@H](CC(C)C)NC(=O)OCc1ccccc1 [Compound B-1-f] | 0.13 | 0.04 | 0.04 | 0.07 | −0.19 | – | – | – | inactive | – | – | – | – | – |
| C=CC(=O)N[C@H](C[C@@H]1CCNC1=O)NC(=O)[C@H](CC1CCCCC1)NC(=O)OCc1ccccc1 [Compound B-2-e] | 0.19 | 0.47 | 0.70 | 0.43 | 0.73 | – | – | – | inactive | – | – | – | – | – |
| C[C@@H](OC(C)(C)C)[C@H](NC(=O)OCc1ccccc1)C(=O)N[C@@H](CC1CCCCC1)C(=O)N[C@H](C=O)C[C@@H]1CCNC1=O [Compound C-2-b] | 0.29 | 0.48 | 0.43 | 0.48 | 0.66 | – | – | 730 | – | 5.0 | 665.2 | 496 | 15 | 52.6 |
| CC(C)(C)[C@H](NC(=O)C(F)(F)F)C(=O)N1C[C@H]2[C@@H]([C@H]1C(=O)N[C@@H](C[C@@H]1CCNC1=O)C(=O)CO)C2(C)C [Compound D-1-c] | 0.04 | −0.06 | – | 0.18 | 0.04 | – | – | 610 | – | – | 1359 | 410 | 30 | 174 |
| C=CC(=O)N[C@H](C[C@@H]1CCNC1=O)NC(=O)[C@@H]1[C@@H]2[C@H](CN1C(=O)[C@@H](NC(=O)C(F)(F)F)C(C)(C)C)C2(C)C [Compound D-1-e] | 0.04 | −0.04 | −0.10 | −0.04 | −0.05 | – | – | – | inactive | – | – | – | – | – |
| CC1(C)[C@@H]2[C@@H](C(=O)N[C@H](C#N)C[C@@H]3CCNC3=O)N(C(=O)[C@@H](NC(=O)C3CC3)C3CC3)C[C@@H]21 [Compound D-2-c] | – | – | – | – | – | 69.7 | – | – | – | – | – | – | – | – |
| CC(C)(C)[C@H](NC(=O)C(F)F)C(=O)N1C[C@H]2[C@@H]([C@H]1C(=O)N[C@H](C#N)C[C@@H]1CCNC1=O)C2(C)C [Compound D-3-b] | 0.02 | −0.01 | – | 0.26 | 0.01 | – | – | 3570 | – | 20.2 | 3768 | 1190 | 60 | 112 |
| C[C@H](NC(=O)[C@@H]1[C@@H]2[C@H](CN1C(=O)[C@@H](NC(=O)C(F)(F)F)C(C)(C)C)C2(C)C)C(=O)CCl [Compound F-1-b] | 0.53 | 0.46 | 0.44 | 0.38 | 0.48 | – | – | – | inactive | – | – | – | – | – |
| CC(C)[C@H](NC(=O)[C@@H]1[C@@H]2[C@H](CN1C(=O)[C@@H](NC(=O)C(F)(F)F)C(C)(C)C)C2(C)C)C(=O)CCl [Compound F-2-b] | 0.65 | 0.55 | 0.57 | 0.50 | 0.81 | – | – | 420 | – | – | – | – | – | – |
| C[C@@H](C=O)NC(=O)[C@@H]1[C@@H]2[C@H](CN1C(=O)[C@@H](NC(=O)C(F)(F)F)C1CC1)C2(C)C [Compound F-3-c] | 0.02 | −0.04 | −0.03 | −0.05 | −0.35 | – | – | – | inactive | – | – | – | – | – |
| CC(C)[C@@H](C#N)NC(=O)[C@@H]1[C@@H]2[C@H](CN1C(=O)[C@@H](NC(=O)C(F)(F)F)C1CC1)C2(C)C [Compound F-4-a] | 0.20 | 0.08 | 0.07 | 0.03 | 0.07 | – | – | – | inactive | – | – | – | – | – |
| CC(C)C[C@H](NC(=O)c1cc2ccccc2[nH]1)C(=O)N1C[C@H]2[C@@H]([C@H]1C(=O)N[C@H](C(=O)CCl)C(C)(C)C)C2(C)C [Compound G-3-c] | – | – | – | – | – | – | > 10000 | – | – | – | – | – | – | – |
| CC(C)C[C@H](NC(=O)C(F)F)C(=O)N1C[C@H]2[C@@H]([C@H]1C(=O)N[C@H](C#N)C[C@@H]1CCNC1=O)C2(C)C [Compound H-1-b] | 0.06 | 0.05 | – | 0.35 | 0.09 | – | – | – | – | – | 304 | 193 | 30 | 143 |
